# Assay: thermodynamic (Steady State Affinity) binding analysis: A subset of compounds was further characterized to determine dissociation constants using thermodynamic (Steady State Affinity) binding analysis.
row,SMILES,Kd [nM]
1,Nc1nc([O-])c2c(n1)n([C@H]1O[C@@H](COP(=O)(O)O)[C@H](O)[C@@H]1O)c[n+]2Cc1cccc(OCc2ccccc2)c1,580
2,Nc1nc([O-])c2c(n1)n([C@H]1O[C@@H](COP(=O)(O)O)[C@H](O)[C@@H]1O)c[n+]2Cc1ccccc1CS(=O)(=O)c1ccccc1,30
3,CO[C@H]1[C@@H](O)[C@H](COP(=O)(O)O)O[C@@H]1n1c[n+](CCOc2ccc(Cl)cc2)c2c([O-])nc(N)nc21,160
4,Nc1nc([O-])c2c(n1)n([C@H]1O[C@@H](COP(=O)(O)O)[C@H](O)[C@@H]1O)c[n+]2Cc1ccc(-c2ccccc2F)cc1,410
5,Nc1nc([O-])c2c(n1)n([C@H]1O[C@@H](COP(=O)(O)O)[C@H](O)[C@@H]1O)c[n+]2Cc1ccc(-c2ccccc2)c(Cl)c1,110
6,Nc1nc([O-])c2c(n1)n([C@H]1O[C@@H](COP(=O)(O)O)[C@H](O)[C@@H]1O)c[n+]2Cc1ccc(-c2ccccc2)cc1,300
7,Nc1nc([O-])c2c(n1)n([C@H]1O[C@@H](COP(=O)(O)O)[C@H](O)[C@@H]1O)c[n+]2Cc1cccc(Oc2ccccc2)c1,220
